Source: ChEMBL document CHEMBL5042526, “Design, Synthesis, and Biological Evaluation of Triazolone Derivatives as Potent PPARα/δ Dual Agonists for the Treatment of Nonalcoholic Steatohepatitis” (J Med Chem, 2022)
Activity calls are given as the source filed them. The calls are words filed in the database; no cut-off is given here.

Experiments:
HepG2 [1] = test: Agonist activity against PPARalpha/delta (unknown origin) assessed as upregulation of ACADVL mRNA expression in human HepG2 cells incubated for 12 hrs by RT-PCR analysis; assay type: cell-based; conditions: filed as agonist, dose 8-200 nM
HepG2 [2] = test: Agonist activity against PPARalpha/delta (unknown origin) assessed as upregulation of PDK4 mRNA expression in human HepG2 cells incubated for 12 hrs by RT-PCR analysis; assay type: cell-based; conditions: filed as agonist, dose 8-200 nM
HepG2 [3] = test: Agonist activity against PPARalpha/delta (unknown origin) assessed as upregulation of CPT1A mRNA expression in human HepG2 cells at 8 nM incubated for 12 hrs by RT-PCR analysis; assay type: cell-based; conditions: filed as agonist
Mus musculus [4] = test: In vivo agonist activity at PPARalpha/delta assessed as upregulation of Lpin2 mRNA expression in C57BL/6Nifdc mouse liver at 10 mg/kg, po for 4 days; assay type: functional, organism-based; conditions: time 4.0 day
Mus musculus [5] = test: In vivo agonist activity at PPARalpha/delta assessed as upregulation of Cdkn1a mRNA expression in C57BL/6Nifdc mouse liver at 10 mg/kg, po for 4 days; assay type: functional, organism-based; conditions: time 4.0 day
Mus musculus [6] = test: In vivo agonist activity at PPARalpha/delta assessed as upregulation of Kit11 mRNA expression in C57BL/6Nifdc mouse liver at 10 mg/kg, po for 4 days; assay type: functional, organism-based; conditions: time 4.0 day
Mus musculus [7] = test: In vivo agonist activity at PPARalpha/delta assessed as upregulation of Lipa mRNA expression in C57BL/6Nifdc mouse liver at 10 mg/kg, po for 4 days; assay type: functional, organism-based; conditions: time 4.0 day
Mus musculus [8] = test: In vivo agonist activity at PPARalpha/delta assessed as upregulation of […] mRNA expression in C57BL/6Nifdc mouse liver at 10 mg/kg, po for 4 days; assay type: functional, organism-based; conditions: time 4.0 day
Mus musculus [9] = test: In vivo agonist activity at PPARalpha/delta assessed as upregulation of Akr1c18 mRNA expression in C57BL/6Nifdc mouse liver at 10 mg/kg, po for 4 days; assay type: functional, organism-based; conditions: time 4.0 day
Mus musculus [10] = test: In vivo agonist activity at PPARalpha/delta assessed as upregulation of Pex11a mRNA expression in C57BL/6Nifdc mouse liver at 10 mg/kg, po for 4 days; assay type: functional, organism-based; conditions: time 4.0 day
Mus musculus [11] = test: In vivo agonist activity at PPARalpha/delta assessed as upregulation of Retsat-mRNA expression in C57BL/6Nifdc mouse liver at 10 mg/kg, po for 4 days; assay type: functional, organism-based; conditions: time 4.0 day
Mus musculus [12] = test: In vivo agonist activity against PPARalpha/delta assessed as upregulation of Fabp1 mRNA expression in C57BL/6Nifdc mouse liver at 10 mg/kg, po for 4 days; assay type: functional, organism-based; conditions: time 4.0 day
Mus musculus [13] = test: In vivo agonist activity against PPARalpha/delta assessed as upregulation of Me1 mRNA expression in C57BL/6Nifdc mouse liver at 10 mg/kg, po for 4 days; assay type: functional, organism-based; conditions: time 4.0 day
Mus musculus [14] = test: In vivo agonist activity against PPARalpha/delta assessed as upregulation of Hadn-mRNA expression in C57BL/6Nifdc mouse liver at 10 mg/kg, po for 4 days; assay type: functional, organism-based; conditions: time 4.0 day
Mus musculus [15] = test: In vivo agonist activity against PPARalpha/delta assessed as upregulation of Pex11a mRNA expression in C57BL/6Nifdc mouse skeletal muscle at 10 mg/kg, po for 4 days; assay type: functional, organism-based; conditions: time 4.0 day
Mus musculus [16] = test: In vivo agonist activity against PPARalpha/delta assessed as upregulation of Cpt2 mRNA expression in C57BL/6Nifdc mouse skeletal muscle at 10 mg/kg, po for 4 days; assay type: functional, organism-based; conditions: time 4.0 day
Mus musculus [17] = test: In vivo agonist activity against PPARalpha/delta assessed as upregulation of Plin5 mRNA expression in C57BL/6Nifdc mouse skeletal muscle at 10 mg/kg, po for 4 days; assay type: functional, organism-based; conditions: time 4.0 day
[18] = molecular target: T1, Nuclear receptor subfamily 1 group I member 2 (Homo sapiens, UniProt O75469); test: Agonist activity at human PXR (138 to 434 residues) in Cos7 cells transfected with LBD-Gal4 and pGL435 Gal4 UAS Luc reporter plasmid at 10 uM by reporter gene assay; assay type: cell-based; conditions: cos7, 10 µM
T1 sequence (O75469 whole entry): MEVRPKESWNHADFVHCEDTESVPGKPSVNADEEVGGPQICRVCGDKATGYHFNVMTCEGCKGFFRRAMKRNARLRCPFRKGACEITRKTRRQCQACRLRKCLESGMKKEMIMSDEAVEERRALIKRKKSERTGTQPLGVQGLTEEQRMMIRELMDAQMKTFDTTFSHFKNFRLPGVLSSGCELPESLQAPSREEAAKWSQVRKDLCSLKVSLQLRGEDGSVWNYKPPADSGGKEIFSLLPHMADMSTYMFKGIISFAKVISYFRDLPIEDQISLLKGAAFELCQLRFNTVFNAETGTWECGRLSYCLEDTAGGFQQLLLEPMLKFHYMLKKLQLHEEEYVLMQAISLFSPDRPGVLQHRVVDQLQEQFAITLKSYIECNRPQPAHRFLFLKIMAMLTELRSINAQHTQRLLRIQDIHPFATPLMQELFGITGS

Mus musculus [19] = test: Anti-NASH activity in HF-CDAA-induced nonalcoholic steatohepatitis C57BL/6JNifdc mouse model assessed as reduction in steatosis by measuring hepatic triglyceride level at 3 to 30 mg/kg, po; assay type: functional, organism-based; conditions: dose 3-30 mg/kg
Mus musculus [20] = test: Anti-NASH activity in HF-CDAA-induced nonalcoholic steatohepatitis C57BL/6JNifdc mouse model assessed as decrease in level of serum AST 10 mg/kg, po by automatic biochemical analysis; assay type: functional, organism-based
Mus musculus [21] = test: Anti-inflammatory activity in HF-CDAA-induced nonalcoholic steatohepatitis C57BL/6JNifdc mouse model assessed as decrease in Il1b mRNA expression at 10 mg/kg, po; assay type: functional, organism-based
THP-1 = test: Anti-inflammatory activity in human THP1-derived macrophages assessed as decrease in secretion of LPS-induced TNF-alpha level at 8 to 200 nM for 12 hrs by ELISA kit method; assay type: functional, cell-based; conditions: dose 8-200 nM
Mus musculus [22] = test: Anti-fibrosis effect in CCl4 induced liver fibrosis C57BL/6JNifdc mouse model assessed as downregulation of Col1a1 expression at 3 to 30 mg/kg, po after 20 hrs by Western blot analysis; assay type: functional, organism-based; conditions: dose 3-30 mg/kg
AML12 [23] = test: Agonist activity against PPARalpha/delta (unknown origin) assessed as upregulation of Cpt1A mRNA expression in […] cells incubated for 12 hrs by RT-PCR analysis; assay type: cell-based; conditions: filed as agonist, dose 8-200 nM
C2C12 [24] = test: Agonist activity against PPARalpha/delta ( unknown origin) assessed as upregulation of Pdk4 mRNA expression in […] cells incubated for 12 hrs by RT-PCR analysis; assay type: cell-based; conditions: filed as agonist, dose 8-200 nM
C2C12 [25] = test: Agonist activity against PPARalpha/delta (unknown origin) assessed as upregulation of Angpt14 mRNA expression in […] cells at 8 nM incubated for 12 hrs by RT-PCR analysis; assay type: cell-based; conditions: filed as agonist
AML12 [26] = test: Agonist activity against PPARalpha/delta (unknown origin) assessed as upregulation of Cpt1A mRNA expression in […] cells at 8 nM incubated for 12 hrs by RT-PCR analysis; assay type: cell-based; conditions: filed as agonist
AML12 [27] = test: Agonist activity against PPARalpha/delta (unknown origin) assessed as upregulation of ACADVL mRNA expression in […] cells at 8 nM incubated for 12 hrs by RT-PCR analysis; assay type: cell-based; conditions: filed as agonist

SMILES: Cc1cc(Cn2ncn(-c3ccc(OC(F)(F)F)cc3)c2=O)cc(C)c1OC(C)(C)C(=O)O
- Activity (HepG2 [1]): Dose-Dependent Effect
- Activity (HepG2 [2]): Dose-Dependent Effect
- Activity (HepG2 [3]): Active
- Activity (Mus musculus [4]): Active
- Activity (Mus musculus [5]): Active
- Activity (Mus musculus [6]): Active
- Activity (Mus musculus [7]): Active
- Activity (Mus musculus [8]): Active
- Activity (Mus musculus [9]): Active
- Activity (Mus musculus [10]): Active
- Activity (Mus musculus [11]): Active
- Activity (Mus musculus [12]): Active
- Activity (Mus musculus [13]): Active
- Activity (Mus musculus [14]): Active
- Activity (Mus musculus [15]): Active
- Activity (Mus musculus [16]): Active
- Activity (Mus musculus [17]): Active
- Activity [18]: Not Active
- Activity (Mus musculus [19]): Active
- Activity (Mus musculus [20]): Active
- Activity (Mus musculus [21]): Active
- Activity (THP-1): Active
- Activity (Mus musculus [22]): Active
- Activity (AML12 [23]): Dose-Dependent Effect
- Activity (C2C12 [24]): Dose-Dependent Effect
- Activity (C2C12 [25]): Active
- Activity (AML12 [26]): Active
- Activity (AML12 [27]): Active
